Measurements: article PMC6405930, “Conservation of the Amyloid Interactome Across Diverse Fibrillar Structures” (Scientific Reports, 2019)

Columns and labels:
C-36 fibrils [1] = biological target: T1, C-36 fibrils (Homo sapiens, UniProt P01009); experiment: Fibril incubation with plasma, quantitative MS/MS of bound proteins; format: binding; conditions: 50:1 w/w plasma protein:fibril
T1 construct: the 36 residue C-terminal fragment of α1-antitrypsin (C-36)
Description: (§1) Plasma and CSF solutions were centrifuged (40,000 g, 20 min) to remove any aggregates. The protein concentration was determined using 280 nm absorbance assuming 1 Abs = 1 mg/mL. […] Control samples (without fibril material) were prepared similarly. All samples were incubated at room temperature for one hour under gentle agitation. Fibrils and fibril-bound proteins were pelleted by centrifugation at 17,000 g for 30 minutes. The supernatant (175 μL) was removed and the aggregate was re-suspended in 175 μL PBS and pelleted again before further preparation for gel analysis and spin-filter assisted digest for quantitative MS/MS.
(§2) The fibril-protein pellets were transferred to spin-filters (0.22 μm), washed twice in PBS (100 μL) and once in 1 M NaCl (100 μL). The fibrils and fibril-bound proteins were dissolved by one-hour incubation in 100 μL 6 M guanidinium chloride followed by elution from the spin-filter. The eluted proteins were loaded onto a 3 kDa MWCO filter unit for filter-assisted unfolding, reduction, alkylation, and trypsin digestion. In brief, samples were washed twice in 8 M urea, once in 8 M urea with 50 mM DTT, once in 8 M urea with 50 mM iodoaceteamide, and twice in 8 M Urea. The filter units were dried by centrifugation (14,000 g in 30 minutes) after every addition. Trypsin digestion was carried out with 0.25 μg sequencing grade trypsin from Sigma Aldrich in 50 mM ammonium bicarbonate overnight at 37 °C. The tryptic peptides were collected by centrifugation, acidified with TFA (0.1%) and micro-purified using POROS R2 column material (Applied Biosystems) packed in P200 pipette tips (Sarstedt).
(§3) LC-MS/MS analyses were performed on an EASY-nLC II system (Thermo Fisher Scientific) connected to a TripleTOF 5600+ mass spectrometer (Sciex) equipped with a NanoSpray III source (Sciex) and operated under Analyst TF 1.6.0 control.
(§4) The micro-purified tryptic peptides were dissolved in 0.1% formic acid, injected and trapped on an in-house packed trap column (2 cm × 100 μm I.D) with RP ReproSil-Pur C18-AQ 3 μm resin (Dr. Maisch GmbH). Peptides were eluted from the trap column and separated on a 15 cm analytical column (75 μm i.d.) packed in-house in a pulled emitter with RP ReproSil-Pur C18-AQ 3 μm resin (Dr. Maisch GmbH). Elution from the analytical column was performed with a linear gradient from 5% to 35% phase B (90% acetonitrile with 0.1% formic acid) over 20 min for protein identification and 50 min for quantitative analysis, respectively.
(§5) All samples were analysed three times, yielding nine MS/MS experiments for each fibril for both plasma and CSF. For the area-based extracted ion chromatogram (XIC) quantification, the acquisition method was set up as an information-dependent acquisition (IDA) experiment collecting up to 25 MS/MS spectra in each 1.6 sec cycle using an exclusion window of 6 sec.
(§6) XIC quantification was based on the average ion intensity of the three most abundant peptides for each protein. Only proteins quantified in at least four out of nine MS/MS experiments per fibril were included in the quantification. The total ion scores were visualized after grouping the proteins according to function (Figure S11).
(§7) For each MS/MS experiment, the ion intensities of the individual proteins were normalized to the total ion intensity of that MS/MS experiment to achieve a relative protein composition. The contribution of each protein was averaged over all nine MS/MS experiments (Tables 1 and 2).

αSN fibrils [2] = biological target: T2, αSN fibrils (Homo sapiens, UniProt P37840); experiment: as above; format: binding; set-up: key to Identification status of plasma protein bound: αSN: *: Identified, but not quantified; —: Not identified in any of the samples; conditions: for Relative composition of plasma proteins bound: αSN: 50:1 w/w plasma protein:fibril
Description: as §1, §2, §3, §4, §5, §6, §7

Ab1 fibrils [3] = system: T3, Ab1 fibrils; experiment: Fibril incubation with CSF, quantitative MS/MS of bound proteins; format: binding, human; set-up: key to Identification status of CSF protein bound: Ab1: *: Identified, but not quantified; —: Not identified in any of the samples; conditions: for Relative composition of CSF proteins bound: Ab1: 4:1 w/w CSF protein:fibril
T3 construct: Synthetic amyloid β peptide 1–40 was purchased from Caslo Aps (Lyngby, Denmark); purchased Caslo Aps (Lyngby, Denmark); host or cells: synthetic peptide
Description: as §1, §2, §3, §4, §5, §6, §7

Ab2 fibrils [4] = system: T4, Ab2 fibrils; experiment: as above; format: binding, human; set-up: key to Identification status of CSF protein bound: Ab2: *: Identified, but not quantified; —: Not identified in any of the samples; conditions: for Relative composition of CSF proteins bound: Ab2: 4:1 w/w CSF protein:fibril; for Identification status of CSF protein bound: Ab2: symbol cells
T4 construct: Two structurally distinct fibrils of the Aβ(1–40) peptide associated with AD
Description: as §1, §2, §3, §4, §5, §6, §7

glucagon fibrils [5] = biological target: T5, glucagon fibrils (Homo sapiens, UniProt P01275); experiment: as above; format: binding; conditions: 4:1 w/w CSF protein:fibril
T5 construct: fibrils of the peptide hormone glucagon
T5 sequence (P01275 53-81 limits assumed): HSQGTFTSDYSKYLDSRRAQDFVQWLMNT
Description: as §1, §2, §3, §4, §5, §6, §7

C-36 fibrils [6] = biological target: T1, C-36 fibrils; experiment: as above; format: binding; set-up: key to Identification status of CSF protein bound: C-36: *: Identified, but not quantified; —: Not identified in any of the samples; conditions: for Relative composition of CSF proteins bound: C-36: 4:1 w/w CSF protein:fibril
Description: as §1, §2, §3, §4, §5, §6, §7

αSN fibrils [7] = biological target: T2, αSN fibrils; experiment: as above; format: binding; set-up: key to Identification status of CSF protein bound: αSN: *: Identified, but not quantified; —: Not identified in any of the samples; conditions: for Identification status of CSF protein bound: αSN: symbol cells; for Relative composition of CSF proteins bound: αSN: 4:1 w/w CSF protein:fibril
Description: as §1, §2, §3, §4, §5, §6, §7

FAS4-AD aggregates [8] = system: T6, FAS4-AD aggregates; experiment: as above; format: binding, human; set-up: key to Identification status of CSF protein bound: FAS4-AD: *: Identified, but not quantified; —: Not identified in any of the samples; conditions: for Identification status of CSF protein bound: FAS4-AD: symbol cells; for Relative composition of CSF proteins bound: FAS4-AD: 4:1 w/w CSF protein:fibril
T6 construct: aggregates of a mutated version of the FAS1-4 domain of TGFBIp
Description: as §1, §2, §3, §4, §5, §6, §7

Ab1 fibrils [9] = system: T3, Ab1 fibrils; experiment: Fibril incubation with plasma, quantitative MS/MS of bound proteins; format: binding, human; conditions: 50:1 w/w plasma protein:fibril
Description: Plasma and CSF solutions were centrifuged (40,000 g, 20 min) to remove any aggregates. The protein concentration was determined using 280 nm absorbance assuming 1 Abs = 1 mg/mL. […] Control samples (without fibril material) were prepared similarly. All samples were incubated at room temperature for one hour under gentle agitation. Fibrils and fibril-bound proteins were pelleted by centrifugation at 17,000 g for 30 minutes. The supernatant (175 μL) was removed and the aggregate was re-suspended in 175 μL PBS and pelleted again before further preparation for gel analysis and spin-filter assisted digest for quantitative MS/MS.
as §2, §3, §4, §5, §6, §7

Ab2 fibrils [10] = system: T4, Ab2 fibrils; experiment: as above; format: binding, human; conditions: 50:1 w/w plasma protein:fibril
Description: as §1, §2, §3, §4, §5, §6, §7

glucagon fibrils [11] = biological target: T5, glucagon fibrils; experiment: as above; format: binding; conditions: 50:1 w/w plasma protein:fibril
Description: as §1, §2, §3, §4, §5, §6, §7

FAS4-AD aggregates [12] = system: T6, FAS4-AD aggregates; experiment: as above; format: binding, human; set-up: key to Identification status of plasma protein bound: FAS4-AD: *: Identified, but not quantified; —: Not identified in any of the samples
Description: as §1, §2, §3, §4, §5, §6, §7

T1 sequence (P01009 383-418 limits assumed): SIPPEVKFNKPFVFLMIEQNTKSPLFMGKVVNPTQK

Fibronectin
Relative composition of plasma proteins bound: C-36 (C-36 fibrils [1]): 0.2 ± 0.0 % of total protein | Relative composition of plasma proteins bound: αSN (αSN fibrils [2]): 1.0 ± 0.0 % of total protein | Relative composition of CSF proteins bound: Ab1 (Ab1 fibrils [3]): 0.9 ± 0.0 % of total protein | Relative composition of CSF proteins bound: Ab2 (Ab2 fibrils [4]): 1.2 ± 0.3 % of total protein | Relative composition of CSF proteins bound: Glucagon (glucagon fibrils [5]): 0.2 ± 0.1 % of total protein | Relative composition of CSF proteins bound: C-36 (C-36 fibrils [6]): 0.7 ± 0.1 % of total protein | Identification status of CSF protein bound: αSN (αSN fibrils [7]): * | Identification status of CSF protein bound: FAS4-AD (FAS4-AD aggregates [8]): —

Complement C1s subcomponent: plasma/CSF protein bound to fibrils
Relative composition of plasma proteins bound: Ab1 (Ab1 fibrils [9]): 0.3 ± 0.0 % of total protein | Relative composition of plasma proteins bound: Ab2 (Ab2 fibrils [10]): 0.7 ± 0.1 % of total protein | Relative composition of plasma proteins bound: Glucagon (glucagon fibrils [11]): 0.2 ± 0.0 % of total protein | Relative composition of plasma proteins bound: C-36 (C-36 fibrils [1]): 0.4 ± 0.1 % of total protein | Identification status of plasma protein bound: αSN (αSN fibrils [2]; symbol cells): * | Identification status of plasma protein bound: FAS4-AD (FAS4-AD aggregates [12]; symbol cells): — | Relative composition of CSF proteins bound: Ab1 (Ab1 fibrils [3]): 0.2 ± 0.0 % of total protein | Identification status of CSF protein bound: Ab2 (Ab2 fibrils [4]): * | Relative composition of CSF proteins bound: Glucagon (glucagon fibrils [5]): 0.2 ± 0.0 % of total protein | Relative composition of CSF proteins bound: C-36 (C-36 fibrils [6]): 0.7 ± 0.2 % of total protein | Identification status of CSF protein bound: αSN (αSN fibrils [7]): — | Identification status of CSF protein bound: FAS4-AD (FAS4-AD aggregates [8]): —

Clusterin: plasma/CSF protein bound to fibrils
Relative composition of plasma proteins bound: Ab1 (Ab1 fibrils [9]): 1.1 ± 0.1 % of total protein | Relative composition of plasma proteins bound: Ab2 (Ab2 fibrils [10]): 2.2 ± 1.2 % of total protein | Relative composition of plasma proteins bound: Glucagon (glucagon fibrils [11]): 0.5 ± 0.1 % of total protein | Relative composition of plasma proteins bound: C-36 (C-36 fibrils [1]): 3.5 ± 0.9 % of total protein | Relative composition of plasma proteins bound: αSN (αSN fibrils [2]): 1.6 ± 0.9 % of total protein | Relative composition of plasma proteins bound: FAS4-AD (FAS4-AD aggregates [12]; 50:1 w/w plasma protein:fibril): 7.9 ± 4.2 % of total protein | Relative composition of CSF proteins bound: Ab1 (Ab1 fibrils [3]): 9.4 ± 1.0 % of total protein | Relative composition of CSF proteins bound: Ab2 (Ab2 fibrils [4]): 6.9 ± 1.6 % of total protein | Relative composition of CSF proteins bound: Glucagon (glucagon fibrils [5]): 2.4 ± 0.6 % of total protein | Relative composition of CSF proteins bound: C-36 (C-36 fibrils [6]): 8.6 ± 1.7 % of total protein | Relative composition of CSF proteins bound: αSN (αSN fibrils [7]): 12.2 ± 2.9 % of total protein | Relative composition of CSF proteins bound: FAS4-AD (FAS4-AD aggregates [8]): 22.8 ± 11.2 % of total protein | Relative composition of CSF proteins bound: FAS4-AD (FAS4-AD aggregates [8]; listed as clusterin): 22.8 % of total protein

Transthyretin
Relative composition of CSF proteins bound: Ab1 (Ab1 fibrils [3]): 3.0 ± 0.5 % of total protein | Relative composition of CSF proteins bound: Ab2 (Ab2 fibrils [4]): 4.0 ± 1.3 % of total protein | Relative composition of CSF proteins bound: Glucagon (glucagon fibrils [5]): 1.1 ± 0.2 % of total protein | Relative composition of CSF proteins bound: C-36 (C-36 fibrils [6]): 2.4 ± 0.2 % of total protein | Relative composition of CSF proteins bound: αSN (αSN fibrils [7]): 4.3 ± 1.1 % of total protein | Relative composition of CSF proteins bound: FAS4-AD (FAS4-AD aggregates [8]): 4.4 ± 0.3 % of total protein

Dickkopf-related protein 3: CSF protein bound to fibrils
Relative composition of CSF proteins bound: Ab1 (Ab1 fibrils [3]): 7.2 ± 0.3 % of total protein | Relative composition of CSF proteins bound: Ab2 (Ab2 fibrils [4]): 5.5 ± 2.2 % of total protein | Relative composition of CSF proteins bound: Glucagon (glucagon fibrils [5]): 1.5 ± 0.4 % of total protein | Relative composition of CSF proteins bound: C-36 (C-36 fibrils [6]): 3.9 ± 1.5 % of total protein | Relative composition of CSF proteins bound: αSN (αSN fibrils [7]): 10.9 ± 1.0 % of total protein | Identification status of CSF protein bound: FAS4-AD (FAS4-AD aggregates [8]): —

Gelsolin
Relative composition of CSF proteins bound: Ab1 (Ab1 fibrils [3]): 2.9 ± 0.1 % of total protein | Relative composition of CSF proteins bound: Ab2 (Ab2 fibrils [4]): 3.5 ± 0.6 % of total protein | Relative composition of CSF proteins bound: Glucagon (glucagon fibrils [5]): 0.8 ± 0.1 % of total protein | Relative composition of CSF proteins bound: C-36 (C-36 fibrils [6]): 1.9 ± 0.2 % of total protein | Relative composition of CSF proteins bound: αSN (αSN fibrils [7]): 5.0 ± 0.9 % of total protein | Identification status of CSF protein bound: FAS4-AD (FAS4-AD aggregates [8]): —

Ig κ chain C region: CSF protein bound to fibrils
Identification status of CSF protein bound: Ab1 (Ab1 fibrils [3]; symbol cells): * | Identification status of CSF protein bound: Ab2 (Ab2 fibrils [4]): * | Relative composition of CSF proteins bound: Glucagon (glucagon fibrils [5]): 0.5 ± 0.0 % of total protein | Identification status of CSF protein bound: C-36 (C-36 fibrils [6]; symbol cells): * | Identification status of CSF protein bound: αSN (αSN fibrils [7]): * | Identification status of CSF protein bound: FAS4-AD (FAS4-AD aggregates [8]): *
